Assay [1] relates to CD133(+) cancer stem-like cells grown in the HFB (ependymoma). The experiment in a line: MTT chemosensitivity assay, cancer stem-like cells of the Example 1 ependymoma sample. Format: cell-based, human. The following applies: 1-hour pulse, MTT 24-hours after treatment, FIG. 5. As for the experimental part:
(§1) Three-Dimensional Bioreactor Cell Culture. A hydrodynamic focusing bioreactor (HFB) (Celdyne, Houston Tex.) was used as previously described to proliferate cancer stem-like cells. Culture media, oxygenation, speed, temperature and CO2 were kept consistently constant for ten days. In certain instances, cancer stem-like cells were cultured in the HFB and exposed for 2 to 6 hours with ozone (O3) levels at levels of 0.08 to 0.40 PPM to cause a fluctuation in the cellular redox environment (redox cycle). Ozone was generated with two OREC Model OZONEV1-O ozonizers (Ozone Research and Equipment Corp., Phoenix, Ariz.), with compressed air used as a source of oxygen, and the concentration of ozone within the chambers was monitored throughout the exposure with three Dasibi 1003 AH ambient-air ozone monitors (Dasibi Environmental Corp., Glendale, Calif.). Cells were then counted and 1×10^6 cells were placed in the rotating vessel set at 25 rpm with airflow set at 20% for […]. Cells were then removed and counted again using trypan blue exclusion to determine cellular viability and cell number and plated in 96 wells for chemosensitivity testing. The cells were also reacted with florescent antibodies for phenotypic characterization.
(§2) Chemosensitivity assay. Sensitivity and resistance to chemotherapy was assessed using an MTT assay on 1×10^3 cells plated in 5 replicas into 96-well plates. Briefly, equal number of bulk of tumor cells grown in monolayer and cancer stem-like cells CD133(+) three-dimensionally grown in the bioreactor, were plated separately in 96-well dishes and incubated at 37° C. for 24-hours. Then the cells were challenged for a 1-hour pulse with a panel of anticancer drugs as indicated by the oncologist. Each anticancer drug was tested in a range of doses including the clinically relevant dose. An MTT assay was performed 24-hours following chemotherapy treatment to assess cell viability as previously described. A dose response chart was developed in which samples were scored as responsive (60-100% cell kill), moderately responsive (40-60% cell kill), low to moderate responsive (20-40% cell kill), low responsive (10-20% cell kill), and non-responsive (0-10% cell kill).
To then expand the immature cancer stem-like cell population of CD 133+ cells present within the ependymoma primary culture, the ependymoma cells were grown in a rotating vessel, as previously described. Briefly, 1×10^6 of the ependymoma cells from a monolayer culture were grown for ten days using a Hydrodynamic Focusing Bioreactor (HFB) (Celdyne, Houston, Tex.) at 25 rpm with airflow set at 20%, and culture media, oxygenation, speed, temperature and CO2 were kept consistently constant for ten day period. Following the ten day period, cells were then removed and counted again from the HFB, and trypan blue exclusion was used to determine cellular viability and cell number. The cells were also reacted with florescent antibodies for phenotypic characterization.
(§3) To assess the efficacy of various chemotherapeutic agents on the cancer cell sample collected in Example 2, an MTT assay was performed on […] plated in 5 replicas into 96-well plates. Briefly, equal number of the bulk cancer cells grown in a monolayer and the CD133(+) cancer stem-like cells grown in the HFB were plated separately in 96-well dishes and incubated at 37° C. for 24-hours. Then, each of the cell cultures were challenged for a 1-hour pulse with various chemotherapeutic agents, including cisplatin, oxaliplatin, arabinoside-C, VP-16, busulfan, methotrexate, CPT-11, and doxorubicin. Each chemotherapeutic agent was tested in a range of doses including their respective clinically relevant doses.
(Tetrazolium assays rely on reduction of a dye to a coloured formazan, in cell work by metabolically active cells.)

Assay [2] deals with ependymoma cells grown in a monolayer (bulk cancer cells). The experiment in a line: MTT chemosensitivity assay, bulk cancer cells of the Example 1 ependymoma sample. The format is cell-based, human. The following applies: 1-hour pulse, MTT 24-hours after treatment, FIG. 5. As for the experimental part: Single Cell Suspension and Primary Cell Culture. Single-cell suspensions from the ependymoma biopsy was prepared using the gentleMACS™ Dissociator (Miltenyi, Auburn, Calif.), and C Tubes using a standardized, semi-automated protocol based on a combination of mechanical tissue disruption and incubation with a 50% solution 0.025% trypsin and Accutase (Innovative Cell Technologies, San Diego, Calif.). Cells were serially plated in 24-well, 12-well, 6-well, 10-cm treated dishes and cultured to subconfluence in RPMI-1640 medium supplemented with 5% irradiated, heat inactivated, defined fetal bovine serum (Thermofisher/Hyclone), and 50 U of penicillin and 5 μg of streptomycin/mL of medium (Thermofisher/Mediatech).
as §2, §3
The MTT assay was then performed 24-hours following the chemotherapy treatment to assess cell viability. A dose response chart was developed in which samples were scored as responsive (60-100% cell kill), moderately responsive (40-60% cell kill), low to moderate responsive (20-40% cell kill), low responsive (10-20% cell kill), and non-responsive (0-10% cell kill). This assessment was independently performed for both the bulk cancer cells and the cancer stem-like cells of the ependymoma cancer cell sample.

Assay [3] deals with cancer stem-like cells (anaplastic ependymoma, WHO grade III). The experiment in a line: MTT assay, cancer stem-like cells, Example 2 anaplastic ependymoma. Format: cell-based, human. The following applies: FIG. 9. As for the experimental part: as §1, §2
(§4) Similar to the experiments described herein above, the cancer cell sample was initially cultured as a suspension and the cancer cells were immunophenotyped by flow cytometer using anti-CD133 (Milteny Biotech, Auburn, Calif.), -CD34 (Milteny Biotech, Auburn, Calif.), -CD38 (Milteny Biotech, Auburn, Calif.), -CD44 (BD Bioscience, Sparks, Md.), -CD24 (Milteny Biotech, Auburn, Calif.), -CXCR4 (Milteny Biotech, Auburn, Calif.), -OCT3/4 (BD Bioscience, Sparks, Md.), and -Nanog (BD Bioscience, Sparks, Md.).
(§5) Then, to then expand the immature cancer stem-like cell population of CD133+ cells present within the ependymoma primary culture, the ependymoma cells were grown in a rotating vessel, as describe herein above and as previously described. To assess the efficacy of various chemotherapeutic agents on the cancer cell sample, an MTT assay was the performed as also described herein.

Assay [4] deals with bulk cancer cells (anaplastic ependymoma, WHO grade III). The experiment in a line: MTT assay, bulk cancer cells, Example 2 anaplastic ependymoma. The format is cell-based, human. The conditions noted are these: FIG. 9. As for the experimental part: as §2, §4, §5
Assay [5] relates to bulk cancer cells (reoccurrence of anaplastic ependymoma). Description: MTT assay, bulk cancer cells from the reoccurrence of the Example 1 ependymoma. The following applies: reoccurrence biopsy, FIG. 6. The format is cell-based, human. The procedure:
as §2

Assay [6] relates to cancer stem-like cells (reoccurrence of anaplastic ependymoma). The experiment in a line: MTT assay, cancer stem-like cells from the reoccurrence of the Example 1 ependymoma. Format: cell-based, human. The following applies: reoccurrence biopsy, FIG. 6. The procedure: as §1
(§6) Chemosensitivity assay. Sensitivity and resistance to chemotherapy was assessed using an MTT assay on 1×10^3 cells plated in 5 replicas into 96-well plates. […]

Assay [7] concerns cancer stem-like cells (IDH-1 negative glioblastoma, WHO grade IV). The experiment in a line: MTT assay, cancer stem-like cells, Example 4 IDH-1 negative glioblastoma. The format is cell-based, human. The following applies: FIG. 13. As for the experimental part: as §1, §6
The subject of assay [8] is bulk cancer cells (IDH-1 negative glioblastoma). The experiment in a line: MTT assay, bulk cancer cells, Example 3 IDH-1 negative glioblastoma. The format is cell-based, human. The conditions noted are these: FIG. 11. As for the experimental part:
as §2

Assay [9] deals with cancer stem-like cells (IDH-1 negative glioblastoma). The experiment in a line: MTT assay, cancer stem-like cells, Example 3 IDH-1 negative glioblastoma. Format: cell-based, human. The conditions noted are these: at the concentration tested, FIG. 11. As for the experimental part:
as §1, §6

In assay [10] the test system is bulk cancer cells (IDH-1 negative glioblastoma, WHO grade IV). Description: MTT assay, bulk cancer cells, Example 4 IDH-1 negative glioblastoma. Format: cell-based, human. The conditions noted are these: FIG. 13. As for the experimental part:
as §2

Assay [11] concerns intradural, extramedullary anaplastic diffuse spinal ependymoma, WHO grade III. Description: Clinical course of the Example 1 subject under treatment. Format: in vivo, human. The following applies: recurring spinal ependymoma.
A further assay has as its system medulloblastoma cells. Description: MTT assay, Example 5 medulloblastoma cells. The following applies: FIG. 15. The format is cell-based, human. The procedure:
as §2

Consider `Nc1ccn([C@@H]2O[C@H](CO)[C@@H](O)[C@@H]2O)c(=O)n1` [arabinoside-C], for which the “sensitivity to chemotherapy (MTT cell viability)” value (from here on “sensitivity to chemotherapy”) in assay [1] and in [2] was “completely not responsive” in each case.

As to bevacizumab, the “sensitivity to chemotherapy” value in assay [3] and in assay [4] was “not sensitive” throughout.

Turning to `S=C=NCc1ccccc1` [BITC, benzyl isothiocyanate], the “sensitivity to chemotherapy” value in [5] is recorded as “sensitive”; in assay [3], “not sensitive”; in assay [6], “sensitive”; in [4] it was “not sensitive”.

`Cn1nnc2c(C(N)=O)ncn2c1=O` [temozolomide]: the cell kill in assay [7] came out at 60%; in assay [8], 50%; in assay [10] it was 60%. Further, the “response score (MTT cell viability)” value in assay [9] is on record as “non-responsive (non-responsive (0-10% cell kill))”. In assay [11], the “clinical response of the tumor to treatment” value is recorded as “no response”.

On to `O=C1[O][Pt]2([NH][C@@H]3CCCC[C@H]3[NH]2)[O]C1=O` [oxaliplatin], for which the “sensitivity to chemotherapy” value was “not sensitive” in assay [3], “not sensitive” in assay [4], “completely not responsive” in assay [1] and “completely not responsive” in assay [2].

In the case of `CNNCc1ccc(C(=O)NC(C)C)cc1` [procarbazine], the cell kill in assay [3] and in [4] was 30% in each case.

As for `COc1cccc2c1C(=O)c1c(O)c3c(c(O)c1C2=O)C[C@@](O)(C(=O)CO)C[C@@H]3O[C@H]1C[C@H](N)[C@H](O)[C@H](C)O1` [doxorubicin], the figures for the “sensitivity to chemotherapy” value in assay [1] and in assay [2] were “highly sensitive” and “sensitive”, respectively.

In the case of `CS(=O)(=O)OCCCCOS(C)(=O)=O` [busulfan], the “sensitivity to chemotherapy” value in [1] and in assay [2] was “minimally to moderately responsive” each time.

`COc1cc([C@@H]2c3cc4c(cc3[C@@H](O[C@@H]3O[C@@H]5CO[C@@H](C)O[C@H]5[C@H](O)[C@H]3O)[C@H]3COC(=O)[C@H]23)OCO4)cc(OC)c1O` [VP-16, etoposide]: the “sensitivity to chemotherapy” value in [1] and in [2] was “completely not responsive” in each case. In addition, the “effectiveness at treating the medulloblastoma cells (MTT)” value in the assay with medulloblastoma cells is “effective”.

As to `CCc1c2c(nc3ccc(OC(=O)N4CCC(N5CCCCC5)CC4)cc13)-c1cc3c(c(=O)n1C2)COC(=O)[C@]3(O)CC` [CPT-11, irinotecan], the “sensitivity to chemotherapy” value in [3] is on record as “not sensitive”; in assay [4], “not sensitive”; in assay [1] it was “moderate chemosensitivity”; in assay [2], “sensitive”.

As for `CN(Cc1cnc2nc(N)nc(N)c2n1)c1ccc(C(=O)N[C@@H](CCC(=O)O)C(=O)O)cc1` [methotrexate], the “sensitivity to chemotherapy” value in assay [1] and in assay [2] was “minimally to moderately responsive” in each case.

As to `N.N.[Cl][Pt][Cl]` [cisplatin], the cell kill in [3] and in assay [4] was 30% in each case. Also, the entries for the “sensitivity to chemotherapy” value in assay [1] and in [2] were “moderate chemosensitivity” and “sensitive”, respectively.

Take `O=NN(CCCl)C(=O)NC1CCCCC1` [lomustine]: the “sensitivity to chemotherapy” value in assay [3] and in assay [4] was “not sensitive” in each case.
